Data on 1 molecule can be found in patent publication US6057286A, “Identification and use of selective inhibitors of glycogen synthase kinase 3” (Chiron Corporation, priority 1997, dated 2000).

Test [1] deals with HepG2 liver cells. The test is described as follows: Insulin- and glucose-stimulated glycogen synthase activity in stable tissue culture cells. As to conditions: addition of insulin and glucose, in the presence of the GSK3 inhibitor. The test is classed as cell-based. An excerpt:
Assays for glucose uptake and glycogen synthesis can be conducted as described for cell-based assays generally. To measure glucose uptake and glycogen synthesis, a variety of stable tissue culture cell lines that respond to insulin stimulation by increasing the synthesis of glycogen and increasing the rate of glucose uptake from the medium can be used. These include HepG2 liver cells, CHO-IR cells, and Hirc cells. Under appropriate conditions the addition of insulin and glucose to HepG2 cells stimulates glycogen synthase activity and this stimulation of potentiated in the presence of the GSK3 inhibitor iodotubercidin. The response of glucose uptake in these cells to insulin, glucose and inhibitor can be as much as six fold, and consequently this assay is useful to detect the ability of inhibitors to potentiate glycogen synthesis in cells.

Test [2] deals with Drosophila cells. The test is described as follows: β-catenin stabilization assay of intracellular GSK3 activity (western blot). The test is classed as cell-based. As to conditions: addition to Drosophila cells; detected on a western blot. The text has this:
Other assays that test functional GSK3 also provide a further test of intracellular GSK3 activity. These assays rely on the ability to observe indirect consequences of GSK3 activity within cells. An example of such an assay involves β-catenin stabilization. Cellular GSK3 activity leads to the destabilization of cytosolic pools of β-catenin in certain types of cell. Consequently, inhibition of GSK3 results in β-catenin stabilization and accumulation, which be detected on a western blot. […] Similarly, LiCl in the cell culture medium causes an increase in intracellular β-catenin levels as described in Stambolic et al, Cur. Biol. 6(12): 1664-8 (1996).

SMILES strings stand for the structures.

For the molecule `Nc1ncnc2c1c(I)cn2[C@@H]1O[C@H](CO)[C@@H](O)[C@H]1O` [iodotubercidin], the “stimulation of glycogen synthase activity by insulin and glucose” value in test [1] is given as “potentiated”. Further, the β-catenin accumulation result in test [2] is listed as “leads to β-catenin accumulation”.
